Blank lines part the entries; values can stand above or below the compound they belong to.
How the values were obtained:
[1] = Clottability of precipitated fibrinogen with bovine thrombin (ELISA of clot supernatant, by difference); type: biochemical, human; details: blood collected into heparin 2 U/mL
Description: The clottability of the recovered fibrinogen is evaluated as follows. A fibrinogen solution as prepared in Example 3 is prepared and used. To 1 mL of the fibrinogen solution 100 μL of bovine thrombin (Vital Products, Inc, Boynton Beach, Fla., 500 Units/mL) is added and the clot is allowed to stand for 30 minutes at 22° C. The clot is then centrifuged for 2 min at 3500 g and the supernatant removed. The amounts of fibrinogen present in the concentrated composition and in the clot supernatant are determined by ELISA, and the fibrinogen present in the clot is determined by difference. […] The amounts of fibrinogen and Factor XIII in the clot supernatant and in the concentrate can be measured with ELISA, and the amounts of fibrinogen and Factor XIII remaining in the clot can be determined by difference.

fibrinogen = target: T1, fibrinogen (Homo sapiens, UniProt P02671+P02675+P02679); assay: Fibrinogen precipitation from plasma by protamine (recovery in the concentrate, ELISA / Clauss method); details: n=4
T1 construct: Fibrinogen is precipitated from pooled human plasma by addition of protamine sulfate; from tissue; host or cells: human blood plasma (pooled human plasma / platelet-poor plasma of healthy adult donors)
T1 sequence (P02671 20-629 limits assumed): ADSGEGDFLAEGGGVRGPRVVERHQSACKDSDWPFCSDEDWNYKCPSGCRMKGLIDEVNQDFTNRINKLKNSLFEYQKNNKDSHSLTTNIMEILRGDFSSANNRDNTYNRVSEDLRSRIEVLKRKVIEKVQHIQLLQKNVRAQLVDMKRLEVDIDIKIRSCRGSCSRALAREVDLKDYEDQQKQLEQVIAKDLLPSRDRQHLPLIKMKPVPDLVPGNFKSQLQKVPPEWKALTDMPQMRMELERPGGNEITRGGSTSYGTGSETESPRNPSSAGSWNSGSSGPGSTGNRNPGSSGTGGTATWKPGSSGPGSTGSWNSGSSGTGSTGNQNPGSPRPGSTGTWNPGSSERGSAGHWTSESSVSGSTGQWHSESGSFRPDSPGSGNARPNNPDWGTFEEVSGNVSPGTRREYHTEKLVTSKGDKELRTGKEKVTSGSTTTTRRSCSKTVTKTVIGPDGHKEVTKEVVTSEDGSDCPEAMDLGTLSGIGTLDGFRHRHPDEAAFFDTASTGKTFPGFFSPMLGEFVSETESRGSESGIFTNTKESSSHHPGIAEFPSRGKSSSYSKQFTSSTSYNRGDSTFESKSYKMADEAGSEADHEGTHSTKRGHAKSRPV
T1 sequence (P02675 31-491): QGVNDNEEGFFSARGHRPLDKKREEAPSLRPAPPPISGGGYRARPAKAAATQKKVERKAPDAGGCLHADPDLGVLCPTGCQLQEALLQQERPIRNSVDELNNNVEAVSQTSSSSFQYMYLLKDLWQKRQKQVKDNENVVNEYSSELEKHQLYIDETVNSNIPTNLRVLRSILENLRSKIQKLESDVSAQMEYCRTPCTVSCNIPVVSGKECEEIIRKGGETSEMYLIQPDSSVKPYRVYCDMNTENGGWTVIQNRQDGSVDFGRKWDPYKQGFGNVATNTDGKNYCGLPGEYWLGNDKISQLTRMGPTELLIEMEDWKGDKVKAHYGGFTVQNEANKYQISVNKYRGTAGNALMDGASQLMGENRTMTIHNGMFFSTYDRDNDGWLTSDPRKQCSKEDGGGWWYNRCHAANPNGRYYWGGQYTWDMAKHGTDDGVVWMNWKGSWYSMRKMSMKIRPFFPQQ
T1 sequence (P02679 27-453): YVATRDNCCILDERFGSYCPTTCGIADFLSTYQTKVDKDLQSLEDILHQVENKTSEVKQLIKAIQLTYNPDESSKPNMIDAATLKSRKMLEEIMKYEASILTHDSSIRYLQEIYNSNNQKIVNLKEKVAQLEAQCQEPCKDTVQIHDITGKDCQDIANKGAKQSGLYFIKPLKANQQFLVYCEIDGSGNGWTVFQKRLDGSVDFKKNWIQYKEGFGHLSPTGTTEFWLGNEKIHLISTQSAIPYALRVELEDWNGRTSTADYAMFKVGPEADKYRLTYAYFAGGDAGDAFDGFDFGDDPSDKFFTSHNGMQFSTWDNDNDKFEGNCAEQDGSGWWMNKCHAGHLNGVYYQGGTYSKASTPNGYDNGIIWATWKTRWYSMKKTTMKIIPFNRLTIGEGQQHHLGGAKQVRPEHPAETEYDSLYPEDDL
Description: Fibrinogen is precipitated from pooled human plasma by addition of protamine sulfate (Sigma Chemical Co.). The protamine sulfate is used to prepare a stock solution of 40 mg/mL. The protamine is then added to the plasma (final concentration=10 mg/mL), mixed, and then centrifuged at 1000 g for 5 min to sediment the precipitate. The plasma is then decanted, and the remaining precipitate is dissolved in 0.2 M sodium citrate (37° C., pH 7.4).
A concentrated fibrinogen solution is prepared as in Example 3. The fibrinogen and Factor XIII concentrations are evaluated with an enzyme-linked immunosorbent assay (ELISA; AssayPro LLC, Brooklyn, N.Y.). The color intensity of the developed ELISA plates is measured with a Dynex MRX microplate reader (Dynex Technologies, Chantilly, Va.) and compared to a standard curve.
The fibrinogen concentration in the plasma is measured with the Clauss method, where plasma samples are clotted in the presence of excess thrombin in a CoaData 2000 Fibrintimer (Labor GmbH, Hamburg, Germany). The clotting times are recorded, and the fibrinogen concentration is calculated from a standard curve. […]
Heparin is used clinically in most procedures requiring anticoagulation. Heparin is evaluated for its effect on fibrinogen and Factor XIII harvesting and subsequent clotting of harvested fibrinogen. […]

[2] = Tensile strength of fibrin clots (dog-bone mold, Instron); details: 15 mg/mL fibrinogen concentrate, calcium chloride 1.8 to 100 mM tested
Description: The tensile strength of fibrin clots is tested. […] The narrow neck provided the weakest point where the clot would break; the force at which the clot breaks serves as an indication of its tensile strength.
Test samples are prepared by simultaneously emptying syringes of fibrinogen and thrombin into a common duct where the mixture entered the mold through the sponge on one end and exited through the sponge on the other end. […] After the sample is given time to “cure,” (30 minutes unless various cure times were being tested), the plexiglass mold is dissembled, and the clot is transferred to an Instron Model 1120 Universal Testing Instrument (Instron Corp., Norwood, Mass., max load 500 g) where it is held on the ends via the sponge “grips”. A stress-strain curve is recorded while the sample is strained at 100 mm/min until it ruptured. The tensile strength is recorded as the maximum stress sustained.
Samples are prepared from a 15 mg/mL pure fibrinogen concentrate (as prepared in Example 4) as follows:
The effect of cure time on tensile strength and adhesion strength is evaluated by allowing the molded clots and the glued aortic strips (described in Example 9) to cure for 1, 5, 10, 15, 30, and 60 minutes at 22° C.
Controls of pooled human plasma (fibrinogen concentration ˜3 mg/mL), pure fibrinogen (15 mg/mL), and Tisseel (average fibrinogen concentration ˜95 mg/mL) are used. […]

[3] = Adhesion strength of fibrin clots between strips of aortic tissue (Instron); details: 15 mg/mL fibrinogen concentrate, calcium chloride 1.8 to 100 mM tested
Description: The adhesive strength of fibrin clots is tested. The adhesion strength of the fibrin glue is assessed by sandwiching the fibrin glue between two strips of aortic tissue and then pulling them apart, simulating the performance of the sealant bonding to tissue. Bovine aorta is prepared by slitting the aorta lengthwise and laying it flat. The aorta is then cut into smaller strips, each approximately 3 cm long and 1 cm wide. […] Sealant is applied (0.1 mL), covering an area of approximately 1 cm^2, to the exposed media as shown. An overlapping joint is formed (approximately one-third the length of each strip) and allowed to “cure” while held in place with a 100 g weight for 30 minutes at 22° C. The non-overlapping ends of the cured samples are clamped in an Instron Model 1120 Universal Testing Instrument (max load 500 g), and a stress-strain curve is recorded while the sample is strained at 100 mm/min until the overlapping (glued) joint failed. Adhesion strength is taken as the maximum stress sustained divided by the joint area (indicated by the glue still visible after the joint failed and measured with a digital caliper).
The effect of cure time on tensile strength and adhesion strength is evaluated by allowing the molded clots and the glued aortic strips (described in Example 9) to cure for 1, 5, 10, 15, 30, and 60 minutes at 22° C. […]

Compound: heparin
change in clottability of fibrinogen when heparin is present [1]: no observed changes

fibrinogen in the plasma precipitated (maximum yield) (fibrinogen; blood collected into heparin 2 U/mL, protamine 11 mg/mL in plasma): 95±1% | fibrinogen precipitated and recovered (percentage of fibrinogen in the original plasma) (fibrinogen; blood or plasma protamine concentration of 10 mg/mL): 96±4%
Compound: protamine sulfate

Compound: [Ca+2].[Cl-].[Cl-] [calcium chloride]
calcium concentration giving maximum tensile strength [2]: 8.9 to 50 mM | calcium concentration giving maximum adhesion strength [3]: 3.6 to 100 mM

Reference: patent US20100086529A1, “METHODS OF MAKING CONCENTRATED FIBRINOGEN- AND PLATELET-CONTAINING COMPOSITIONS” (priority 2008, published 2010)
